According to BigSolDB 2.1:

COc1cc(Cl)c(OC)cc1N
Details	solubility (mole fraction)
in 1-methoxy-2-propanol, 277.4 K	0.0208
in 1-methoxy-2-propanol, 281.6 K	0.0267
in 1-methoxy-2-propanol, 289.4 K	0.0327
in 1-methoxy-2-propanol, 294.3 K	0.0369
in 1-methoxy-2-propanol, 298.5 K	0.045
in 1-methoxy-2-propanol, 302.6 K	0.0536
in 1-methoxy-2-propanol, 307.6 K	0.0649
in 1-methoxy-2-propanol, 312.6 K	0.0772
in 1-methoxy-2-propanol, 316.8 K	0.089
in 1-methoxy-2-propanol, 320.9 K	0.101
in 1-methoxy-2-propanol, 326.3 K	0.125
in 2-ethoxyethanol, 278.6 K	0.0282
in 2-ethoxyethanol, 283.5 K	0.0322
in 2-ethoxyethanol, 287.6 K	0.0361
in 2-ethoxyethanol, 291.7 K	0.04
in 2-ethoxyethanol, 295.8 K	0.0453
in 2-ethoxyethanol, 300.3 K	0.0559
in 2-ethoxyethanol, 306.7 K	0.0672
in 2-ethoxyethanol, 310.9 K	0.0785
in 2-ethoxyethanol, 315 K	0.0894
in 2-ethoxyethanol, 319.7 K	0.1
in 2-ethoxyethanol, 323.9 K	0.117
in 2-ethoxyethanol, 328 K	0.138
in 2-methoxyethanol, 277.2 K	0.0282
in 2-methoxyethanol, 281.1 K	0.034
in 2-methoxyethanol, 285.5 K	0.0427
in 2-methoxyethanol, 291.2 K	0.0497
in 2-methoxyethanol, 295.3 K	0.0549
in 2-methoxyethanol, 299.4 K	0.06
in 2-methoxyethanol, 303.6 K	0.0665
in 2-methoxyethanol, 307.7 K	0.0768
in 2-methoxyethanol, 312.1 K	0.0884
in 2-methoxyethanol, 315.7 K	0.0986
in 2-methoxyethanol, 319.6 K	0.112
in 2-methoxyethanol, 324.2 K	0.129
in diethylene glycol, 276.7 K	0.0167
in diethylene glycol, 280.9 K	0.0188
in diethylene glycol, 285.1 K	0.021
in diethylene glycol, 289.4 K	0.0233
in diethylene glycol, 295.5 K	0.0279
in diethylene glycol, 299.6 K	0.0312
in diethylene glycol, 303.8 K	0.0346
in diethylene glycol, 307.9 K	0.0396
in diethylene glycol, 312 K	0.0447
in diethylene glycol, 316.5 K	0.0512
in diethylene glycol, 320.8 K	0.0584
in diethylene glycol, 325.3 K	0.0675

COc1cc([N+](=O)[O-])c(OC)cc1Cl
Details	solubility (mole fraction)
in 1-methoxy-2-propanol, 282.2 K	0.00313
in 1-methoxy-2-propanol, 287.1 K	0.00354
in 1-methoxy-2-propanol, 291.6 K	0.00392
in 1-methoxy-2-propanol, 296 K	0.00428
in 1-methoxy-2-propanol, 300.3 K	0.00466
in 1-methoxy-2-propanol, 304.6 K	0.00648
in 1-methoxy-2-propanol, 309 K	0.00937
in 1-methoxy-2-propanol, 313.1 K	0.0123
in 1-methoxy-2-propanol, 317.2 K	0.0154
in 1-methoxy-2-propanol, 321.3 K	0.0191
in 1-methoxy-2-propanol, 325.7 K	0.0258
in 2-ethoxyethanol, 276.7 K	0.00187
in 2-ethoxyethanol, 280.8 K	0.00226
in 2-ethoxyethanol, 284.9 K	0.00266
in 2-ethoxyethanol, 289.1 K	0.00307
in 2-ethoxyethanol, 293.2 K	0.00347
in 2-ethoxyethanol, 297.3 K	0.00389
in 2-ethoxyethanol, 301.4 K	0.00502
in 2-ethoxyethanol, 305.5 K	0.00638
in 2-ethoxyethanol, 309.6 K	0.00874
in 2-ethoxyethanol, 314 K	0.0139
in 2-ethoxyethanol, 320.6 K	0.0193
in 2-ethoxyethanol, 327.1 K	0.0237
in 2-methoxyethanol, 283.2 K	0.00622
in 2-methoxyethanol, 290.9 K	0.00838
in 2-methoxyethanol, 295.3 K	0.00953
in 2-methoxyethanol, 299.4 K	0.0107
in 2-methoxyethanol, 303.1 K	0.0119
in 2-methoxyethanol, 306.8 K	0.0146
in 2-methoxyethanol, 313 K	0.0177
in 2-methoxyethanol, 317.9 K	0.0201
in 2-methoxyethanol, 321.7 K	0.0226
in 2-methoxyethanol, 325.8 K	0.0282
in 2-methoxyethanol, 329.8 K	0.0335
in diethylene glycol, 282.1 K	0.000239
in diethylene glycol, 286.5 K	0.000275
in diethylene glycol, 290.8 K	0.000321
in diethylene glycol, 296.1 K	0.000364
in diethylene glycol, 301.6 K	0.000402
in diethylene glycol, 306.2 K	0.00048
in diethylene glycol, 310.7 K	0.000573
in diethylene glycol, 315.2 K	0.000717
in diethylene glycol, 319.5 K	0.000876
in diethylene glycol, 323.6 K	0.00109
in diethylene glycol, 327.7 K	0.00136

COc1ccc(OC)c(N)c1
Details	solubility (mole fraction)
in 1-methoxy-2-propanol, 276.6 K	0.0204
in 1-methoxy-2-propanol, 279.7 K	0.0255
in 1-methoxy-2-propanol, 282.8 K	0.0306
in 1-methoxy-2-propanol, 285.9 K	0.0382
in 1-methoxy-2-propanol, 289 K	0.0512
in 1-methoxy-2-propanol, 292.1 K	0.0675
in 1-methoxy-2-propanol, 295.2 K	0.0867
in 1-methoxy-2-propanol, 298.3 K	0.11
in 1-methoxy-2-propanol, 301.6 K	0.14
in 1-methoxy-2-propanol, 305.1 K	0.174
in 1-methoxy-2-propanol, 310.4 K	0.211
in 1-methoxy-2-propanol, 314.7 K	0.239
in 1-methoxy-2-propanol, 318.8 K	0.281
in 1-methoxy-2-propanol, 322.9 K	0.323
in 2-ethoxyethanol, 276.7 K	0.0186
in 2-ethoxyethanol, 279.8 K	0.0238
in 2-ethoxyethanol, 282.9 K	0.029
in 2-ethoxyethanol, 286 K	0.0369
in 2-ethoxyethanol, 289.1 K	0.0481
in 2-ethoxyethanol, 292.2 K	0.0635
in 2-ethoxyethanol, 295.3 K	0.0834
in 2-ethoxyethanol, 298.4 K	0.106
in 2-ethoxyethanol, 301.6 K	0.135
in 2-ethoxyethanol, 304.7 K	0.165
in 2-ethoxyethanol, 308.9 K	0.199
in 2-ethoxyethanol, 313 K	0.231
in 2-ethoxyethanol, 317.1 K	0.262
in 2-ethoxyethanol, 321.4 K	0.311
in 2-ethoxyethanol, 325.5 K	0.371
in 2-methoxyethanol, 276.4 K	0.0331
in 2-methoxyethanol, 280.5 K	0.046
in 2-methoxyethanol, 284.6 K	0.0617
in 2-methoxyethanol, 288.7 K	0.0819
in 2-methoxyethanol, 292.8 K	0.102
in 2-methoxyethanol, 296.9 K	0.123
in 2-methoxyethanol, 301 K	0.15
in 2-methoxyethanol, 305.1 K	0.185
in 2-methoxyethanol, 309.2 K	0.217
in 2-methoxyethanol, 313.4 K	0.254
in 2-methoxyethanol, 316.6 K	0.292
in diethylene glycol, 276.7 K	0.00015
in diethylene glycol, 280.9 K	0.000379
in diethylene glycol, 285 K	0.000611
in diethylene glycol, 289.1 K	0.000885
in diethylene glycol, 293.2 K	0.00119
in diethylene glycol, 297.3 K	0.00165
in diethylene glycol, 301.4 K	0.00325
in diethylene glycol, 303.5 K	0.00532
in diethylene glycol, 305.6 K	0.00751
in diethylene glycol, 307.7 K	0.015
in diethylene glycol, 309.8 K	0.0248
in diethylene glycol, 311.9 K	0.0458
in diethylene glycol, 314 K	0.0704
in diethylene glycol, 316.1 K	0.104
in diethylene glycol, 318.2 K	0.14
in diethylene glycol, 320.7 K	0.177
in diethylene glycol, 323.7 K	0.216
